# Bridge positions count the residues as written; N and C are the ends. Peptide text beside a SMILES is read from it.
# Experiments:
# [1] = system: Human immunodeficiency virus 1; assay: Antiviral activity against HIV-1 NL4-3 infected in human PM1/CCR5 cells after 7 days by WST-8 assay; type: functional, organism-based; settings: Human immunodeficiency virus 1, NL4-3, PM1/CCR5, 168 h
# [2] = system: Micrococcus luteus; assay: Antibacterial activity against Micrococcus luteus after 24 hrs; type: functional
# [3] = system: Escherichia coli; assay: Antibacterial activity against Escherichia coli after 24 hrs; type: functional
# [4] = system: Staphylococcus aureus; assay: Antibacterial activity against Staphylococcus aureus after 24 hrs; type: functional
# [5] = system: Bacillus subtilis; assay: Antibacterial activity against Bacillus subtilis after 24 hrs; type: functional
# [6] = system: Pseudomonas aeruginosa; assay: Antibacterial activity against Pseudomonas aeruginosa after 24 hrs; type: functional
SMILES,IC50 [1],MIC [2],MIC [3],MIC [4],MIC [5],MIC [6]
"CC(C)C[C@@H]1NC(=O)[C@@H]2CSSC[C@@H]3NC(=O)CNC(=O)[C@H](C)NC(=O)[C@H](Cc4ccccc4)NC(=O)[C@H](CC(=O)N2)NC(=O)[C@H](C(C)C)NC(=O)[C@H](CSSC[C@@H](C(=O)N[C@@H](Cc2ccccc2)C(=O)N[C@@H](Cc2c[nH]c4ccccc24)C(=O)O)NC(=O)[C@H](C(C)C)NC(=O)[C@H](C(C)C)NC(=O)[C@H](C)NC(=O)[C@H](Cc2ccc(O)cc2)NC(=O)CNC3=O)NC(=O)[C@H](CO)NC(=O)CNC(=O)[C@H](C(C)C)NC(=O)CNC1=O (CLGVGSCVDFAGCGYAVVCFW-OH; disulfide 1-13, 7-19; lactam N-9)",7.2 µM,8 µg/mL,> 32 µg/mL,> 32 µg/mL,> 32 µg/mL,> 32 µg/mL
CN(C)[C@@H]1C(O)=C(C(N)=O)C(=O)[C@@]2(O)C(O)=C3C(=O)c4c(O)cccc4[C@@](C)(O)[C@H]3C[C@@H]12 [TETRACYCLINE],,0.25 µg/mL,2 µg/mL,0.125 µg/mL,1 µg/mL,4 µg/mL

# From ChEMBL document CHEMBL4308876, “Isolation and structure determination of a new lasso peptide specialicin based on genome mining” (Bioorg Med Chem, 2018)
